Publication doi:10.1101/2020.06.11.145995v1 (biorxiv, 2020)
Where two headings read alike, the source gives them in different places.

Key:
Assay in all cases: biochemical
NEK5 = NEK5 (Homo sapiens, UniProt Q6P3R8)
PRKR = PRKR (Homo sapiens, UniProt P19525)
PLK4 = PLK4 (Homo sapiens, UniProt O00444)
TIE2 = TIE2 (Homo sapiens, UniProt Q02763)
PHKG2 = PHKG2 (Homo sapiens, UniProt P15735)
STK16 = STK16 (Homo sapiens, UniProt O75716)
NEK9 = NEK9 (Homo sapiens, UniProt Q8TD19)
PRKCD = PRKCD (Homo sapiens, UniProt Q05655)
SYK = SYK (Homo sapiens, UniProt P43405)
NEK1 = NEK1 (Homo sapiens, UniProt Q96PY6)
PRKD1 = PRKD1 (Homo sapiens, UniProt Q15139)
TXK = TXK (Homo sapiens, UniProt P42681)
SLK = SLK (Homo sapiens, UniProt Q9H2G2)
PRKCI = PRKCI (Homo sapiens, UniProt P41743)
QSK = QSK (Homo sapiens, UniProt Q9Y2K2)
OSR1 = OSR1 (Homo sapiens, UniProt O95747)
TRKB = TRKB (Homo sapiens, UniProt Q16620)
PCTK3 = PCTK3 (Homo sapiens, UniProt Q07002)
TYRO3 = TYRO3 (Homo sapiens, UniProt Q06418)
YES = YES (Homo sapiens, UniProt P07947)
MKK7 = MKK7 (Homo sapiens, UniProt O14733)
RET(V804L) = RET(V804L) (Homo sapiens, UniProt P07949, V804L)
TRPM6 = TRPM6 (Homo sapiens, UniProt Q9BX84)
PHKG1 = PHKG1 (Homo sapiens, UniProt Q16816)
ROCK1 = ROCK1 (Homo sapiens, UniProt Q13464)
RET = RET (Homo sapiens, UniProt P07949)
PAK1 = PAK1 (Homo sapiens, UniProt Q13153)
WEE2 = WEE2 (Homo sapiens, UniProt P0C1S8)
RPS6KA4 = RPS6KA4 (Homo sapiens, UniProt O75676)
SIK = SIK (Homo sapiens, UniProt P57059)
[1] = read-out: CPT-1-70-1 (1μM) % control
[2] = read-out: HYJ-2-002-1 (1μM) % control

RPS6KA4, sequence (O75676 whole entry): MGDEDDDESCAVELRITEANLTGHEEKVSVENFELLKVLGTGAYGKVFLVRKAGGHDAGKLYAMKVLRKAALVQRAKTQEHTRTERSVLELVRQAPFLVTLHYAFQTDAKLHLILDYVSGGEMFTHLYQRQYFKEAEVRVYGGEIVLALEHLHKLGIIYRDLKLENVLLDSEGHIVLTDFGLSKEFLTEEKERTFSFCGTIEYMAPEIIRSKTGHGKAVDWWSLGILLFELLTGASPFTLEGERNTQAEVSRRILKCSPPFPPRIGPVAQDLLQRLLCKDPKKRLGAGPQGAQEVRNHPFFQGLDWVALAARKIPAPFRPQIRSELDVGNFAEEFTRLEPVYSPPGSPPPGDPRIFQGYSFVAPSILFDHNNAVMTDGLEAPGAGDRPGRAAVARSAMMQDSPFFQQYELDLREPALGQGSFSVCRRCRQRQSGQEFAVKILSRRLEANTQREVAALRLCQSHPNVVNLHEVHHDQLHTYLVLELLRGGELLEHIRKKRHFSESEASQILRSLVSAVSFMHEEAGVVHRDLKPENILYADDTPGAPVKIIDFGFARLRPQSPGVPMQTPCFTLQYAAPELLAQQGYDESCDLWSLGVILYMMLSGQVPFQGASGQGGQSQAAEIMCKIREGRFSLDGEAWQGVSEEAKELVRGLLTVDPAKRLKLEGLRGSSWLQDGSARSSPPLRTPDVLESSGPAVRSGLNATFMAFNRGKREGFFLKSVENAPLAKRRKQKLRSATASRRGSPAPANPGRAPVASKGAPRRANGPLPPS
PAK1, sequence (Q13153 whole entry): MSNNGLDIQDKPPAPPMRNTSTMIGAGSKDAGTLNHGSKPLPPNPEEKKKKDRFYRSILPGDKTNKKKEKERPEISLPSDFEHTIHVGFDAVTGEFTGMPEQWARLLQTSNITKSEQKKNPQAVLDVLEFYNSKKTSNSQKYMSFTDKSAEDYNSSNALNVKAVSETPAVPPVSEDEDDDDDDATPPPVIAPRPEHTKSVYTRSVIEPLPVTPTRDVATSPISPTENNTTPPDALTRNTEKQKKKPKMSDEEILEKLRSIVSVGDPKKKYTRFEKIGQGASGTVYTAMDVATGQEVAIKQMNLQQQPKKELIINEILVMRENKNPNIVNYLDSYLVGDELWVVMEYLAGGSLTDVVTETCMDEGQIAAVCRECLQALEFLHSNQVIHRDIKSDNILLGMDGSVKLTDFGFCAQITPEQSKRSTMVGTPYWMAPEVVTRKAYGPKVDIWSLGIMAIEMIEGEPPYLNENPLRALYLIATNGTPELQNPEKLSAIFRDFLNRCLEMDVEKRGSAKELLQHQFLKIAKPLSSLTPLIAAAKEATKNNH
MKK7, sequence (O14733 whole entry): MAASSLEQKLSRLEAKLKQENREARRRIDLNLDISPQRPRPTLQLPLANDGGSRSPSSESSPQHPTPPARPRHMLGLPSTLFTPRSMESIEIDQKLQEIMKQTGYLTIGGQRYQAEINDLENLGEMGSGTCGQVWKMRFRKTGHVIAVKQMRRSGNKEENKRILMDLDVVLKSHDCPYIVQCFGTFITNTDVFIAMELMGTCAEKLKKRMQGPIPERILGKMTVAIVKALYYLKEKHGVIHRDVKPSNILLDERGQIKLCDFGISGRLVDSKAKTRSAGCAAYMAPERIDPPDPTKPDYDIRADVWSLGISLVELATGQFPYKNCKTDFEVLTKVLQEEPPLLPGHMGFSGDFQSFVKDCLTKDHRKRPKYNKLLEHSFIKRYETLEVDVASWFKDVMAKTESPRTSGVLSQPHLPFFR
TRKB, sequence (Q16620 whole entry): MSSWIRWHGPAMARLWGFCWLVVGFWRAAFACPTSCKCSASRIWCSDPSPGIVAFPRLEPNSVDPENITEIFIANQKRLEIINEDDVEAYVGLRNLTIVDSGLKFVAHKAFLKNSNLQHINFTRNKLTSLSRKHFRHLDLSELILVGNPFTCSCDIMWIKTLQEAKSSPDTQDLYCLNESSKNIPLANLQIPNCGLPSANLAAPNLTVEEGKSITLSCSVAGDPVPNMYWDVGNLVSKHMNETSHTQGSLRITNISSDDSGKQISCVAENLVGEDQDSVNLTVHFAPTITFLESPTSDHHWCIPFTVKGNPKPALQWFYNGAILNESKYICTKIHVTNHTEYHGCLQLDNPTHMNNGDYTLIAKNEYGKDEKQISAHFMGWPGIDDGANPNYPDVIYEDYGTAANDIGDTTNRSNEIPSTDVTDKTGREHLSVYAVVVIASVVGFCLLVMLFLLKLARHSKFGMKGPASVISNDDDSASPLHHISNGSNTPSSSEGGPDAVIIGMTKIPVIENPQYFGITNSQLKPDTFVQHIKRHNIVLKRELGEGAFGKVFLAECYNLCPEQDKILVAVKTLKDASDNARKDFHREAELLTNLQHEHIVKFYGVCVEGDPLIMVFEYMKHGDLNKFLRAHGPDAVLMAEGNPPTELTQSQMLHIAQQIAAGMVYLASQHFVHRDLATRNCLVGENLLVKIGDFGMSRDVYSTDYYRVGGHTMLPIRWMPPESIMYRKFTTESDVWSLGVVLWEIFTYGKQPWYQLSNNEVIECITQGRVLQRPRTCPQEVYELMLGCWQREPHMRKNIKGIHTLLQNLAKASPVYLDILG
QSK, sequence (Q9Y2K2 whole entry): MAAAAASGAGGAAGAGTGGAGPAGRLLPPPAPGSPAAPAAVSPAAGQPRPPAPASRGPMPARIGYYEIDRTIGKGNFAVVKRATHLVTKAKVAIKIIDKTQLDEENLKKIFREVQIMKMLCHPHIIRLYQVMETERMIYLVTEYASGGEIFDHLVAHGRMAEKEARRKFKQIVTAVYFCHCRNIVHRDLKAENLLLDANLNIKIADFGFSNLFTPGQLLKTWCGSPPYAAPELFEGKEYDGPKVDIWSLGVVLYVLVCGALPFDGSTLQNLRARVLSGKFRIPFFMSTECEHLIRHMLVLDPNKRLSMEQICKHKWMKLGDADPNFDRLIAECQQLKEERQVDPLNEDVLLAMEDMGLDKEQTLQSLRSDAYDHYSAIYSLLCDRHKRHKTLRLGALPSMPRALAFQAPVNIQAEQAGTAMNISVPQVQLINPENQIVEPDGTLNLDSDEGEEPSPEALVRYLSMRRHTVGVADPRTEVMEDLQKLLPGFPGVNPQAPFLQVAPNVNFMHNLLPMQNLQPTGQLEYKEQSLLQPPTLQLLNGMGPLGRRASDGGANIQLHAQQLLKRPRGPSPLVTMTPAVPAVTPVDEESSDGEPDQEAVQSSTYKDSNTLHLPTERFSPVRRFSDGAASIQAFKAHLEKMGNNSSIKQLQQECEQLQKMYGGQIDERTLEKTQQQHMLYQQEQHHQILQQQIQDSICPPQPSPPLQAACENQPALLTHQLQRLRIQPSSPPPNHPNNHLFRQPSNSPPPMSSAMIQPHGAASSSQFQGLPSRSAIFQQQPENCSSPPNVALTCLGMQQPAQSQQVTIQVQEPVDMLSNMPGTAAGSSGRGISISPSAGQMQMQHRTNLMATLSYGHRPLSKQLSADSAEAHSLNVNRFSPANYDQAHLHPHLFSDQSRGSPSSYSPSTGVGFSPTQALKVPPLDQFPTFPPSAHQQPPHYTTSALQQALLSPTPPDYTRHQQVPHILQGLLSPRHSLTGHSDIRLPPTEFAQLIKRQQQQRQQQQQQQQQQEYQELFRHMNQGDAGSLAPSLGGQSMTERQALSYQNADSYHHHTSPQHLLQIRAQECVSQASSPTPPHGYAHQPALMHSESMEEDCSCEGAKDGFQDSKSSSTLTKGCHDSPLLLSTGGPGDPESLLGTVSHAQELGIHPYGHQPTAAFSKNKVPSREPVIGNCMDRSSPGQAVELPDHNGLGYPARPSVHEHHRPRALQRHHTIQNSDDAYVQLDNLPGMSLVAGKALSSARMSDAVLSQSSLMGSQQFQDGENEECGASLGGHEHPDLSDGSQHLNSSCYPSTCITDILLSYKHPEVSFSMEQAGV
NEK5, sequence (Q6P3R8 whole entry): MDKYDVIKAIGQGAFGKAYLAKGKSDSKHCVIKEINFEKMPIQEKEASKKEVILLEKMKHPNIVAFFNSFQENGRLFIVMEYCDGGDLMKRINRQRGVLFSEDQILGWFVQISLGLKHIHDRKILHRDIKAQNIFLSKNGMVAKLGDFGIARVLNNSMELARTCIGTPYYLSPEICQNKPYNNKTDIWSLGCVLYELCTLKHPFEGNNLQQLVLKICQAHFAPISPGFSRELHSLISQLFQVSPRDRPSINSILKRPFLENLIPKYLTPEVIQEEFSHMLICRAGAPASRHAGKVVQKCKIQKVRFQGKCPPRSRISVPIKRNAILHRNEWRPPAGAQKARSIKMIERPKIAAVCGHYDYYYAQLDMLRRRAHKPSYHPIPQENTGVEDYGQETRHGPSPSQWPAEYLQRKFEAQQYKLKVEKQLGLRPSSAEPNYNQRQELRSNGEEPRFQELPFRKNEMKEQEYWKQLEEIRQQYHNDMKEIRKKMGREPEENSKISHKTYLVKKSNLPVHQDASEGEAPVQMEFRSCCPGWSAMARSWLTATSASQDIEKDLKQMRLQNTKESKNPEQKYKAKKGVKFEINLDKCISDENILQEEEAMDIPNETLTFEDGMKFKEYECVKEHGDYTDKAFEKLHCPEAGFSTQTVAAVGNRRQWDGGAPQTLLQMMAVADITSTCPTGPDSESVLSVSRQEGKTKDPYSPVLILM
PHKG2, sequence (P15735 whole entry): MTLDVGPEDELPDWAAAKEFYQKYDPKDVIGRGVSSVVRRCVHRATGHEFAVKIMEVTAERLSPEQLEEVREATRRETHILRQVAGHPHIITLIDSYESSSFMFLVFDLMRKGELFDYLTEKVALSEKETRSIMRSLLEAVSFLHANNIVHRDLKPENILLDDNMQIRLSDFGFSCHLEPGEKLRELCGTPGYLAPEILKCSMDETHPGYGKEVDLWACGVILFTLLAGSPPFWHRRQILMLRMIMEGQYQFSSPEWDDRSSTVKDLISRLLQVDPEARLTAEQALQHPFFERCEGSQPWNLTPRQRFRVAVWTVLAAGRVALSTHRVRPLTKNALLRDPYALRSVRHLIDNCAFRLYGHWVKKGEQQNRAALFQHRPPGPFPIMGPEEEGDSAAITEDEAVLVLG

Molecule `CN1CCN(c2ccc(Nc3nc(Oc4ccc(NC(=O)CCl)cc4)c4cc[nH]c4n3)cc2)CC1` [CPT1-70-1] has a remaining activity at 1 µM (NEK5; [1]) of 82%, a remaining activity at 1 µM (PRKR; [1]) of 93% and a remaining activity at 1 µM (PLK4; [1]) of 23%. It also gave a remaining activity at 1 µM (TIE2; [1]) of 100%, a remaining activity at 1 µM (PHKG2; [1]) of 72% and a remaining activity at 1 µM (STK16; [1]) of 0.75%. The remaining activity at 1 µM (NEK9; [1]) was 100%, the remaining activity at 1 µM (PRKCD; [1]) was 100% and the remaining activity at 1 µM (SYK; [1]) was 63%. It also gave a remaining activity at 1 µM (NEK1; [1]) of 100%, a remaining activity at 1 µM (PRKD1; [1]) of 52% and a remaining activity at 1 µM (TXK; [1]) of 4.6%. For the same molecule, the remaining activity at 1 µM (SLK; [1]) was 77%, the remaining activity at 1 µM (PRKCI; [1]) was 65% and the remaining activity at 1 µM (QSK; [1]) was 100%. It also gave a remaining activity at 1 µM (OSR1; [1]) of 96%, a remaining activity at 1 µM (TRKB; [1]) of 28% and a remaining activity at 1 µM (PCTK3; [1]) of 97%. It also gave a remaining activity at 1 µM (TYRO3; [1]) of 100%, a remaining activity at 1 µM (YES; [1]) of 17% and a remaining activity at 1 µM (MKK7; [1]) of 8.1%. The remaining activity at 1 µM (RET(V804L); [1]) was 11%, the remaining activity at 1 µM (TRPM6; [1]) was 48% and the remaining activity at 1 µM (PHKG1; [1]) was 100%. It also gave a remaining activity at 1 µM (ROCK1; [1]) of 29%, a remaining activity at 1 µM (RET; [1]) of 25% and a remaining activity at 1 µM (PAK1; [1]) of 64%. For the same molecule, the remaining activity at 1 µM (WEE2; [1]) was 100%, the remaining activity at 1 µM (RPS6KA4; read-out: CPT-1-70-1 (1μM) % control, Kin.Dom.1-N-terminal) was 100% and the remaining activity at 1 µM (RPS6KA4; read-out: CPT-1-70-1 (1μM) % control, Kin.Dom.2-C-terminal) was 79%. It also gave a remaining activity at 1 µM (SIK; [1]) of 100%.

For `CCN1CCN(Cc2ccc(NC(=O)c3ccc(C)c(CCc4cnc5[nH]ccc5c4OC)c3)cc2C(F)(F)F)CC1` [HYJ-2-002-1], the remaining activity at 1 µM (NEK5; [2]) was 21%, the remaining activity at 1 µM (PRKR; [2]) was 75% and the remaining activity at 1 µM (PLK4; [2]) was 100%. For the same molecule, the remaining activity at 1 µM (TIE2; [2]) was 0.15%, the remaining activity at 1 µM (PHKG2; [2]) was 73% and the remaining activity at 1 µM (STK16; [2]) was 80%. For the same molecule, the remaining activity at 1 µM (NEK9; [2]) was 38%, the remaining activity at 1 µM (PRKCD; [2]) was 78% and the remaining activity at 1 µM (SYK; [2]) was 18%. For the same molecule, the remaining activity at 1 µM (NEK1; [2]) was 82%, the remaining activity at 1 µM (PRKD1; [2]) was 90% and the remaining activity at 1 µM (TXK; [2]) was 2.1%. It also gave a remaining activity at 1 µM (SLK; [2]) of 9.8%, a remaining activity at 1 µM (PRKCI; [2]) of 73% and a remaining activity at 1 µM (QSK; [2]) of 100%. The remaining activity at 1 µM (OSR1; [2]) was 93%, the remaining activity at 1 µM (TRKB; [2]) was 4.2% and the remaining activity at 1 µM (PCTK3; [2]) was 100%. The remaining activity at 1 µM (TYRO3; [2]) was 40%, the remaining activity at 1 µM (YES; [2]) was 0.55% and the remaining activity at 1 µM (MKK7; [2]) was 8.2%. The remaining activity at 1 µM (RET(V804L); [2]) was 1.4%, the remaining activity at 1 µM (TRPM6; [2]) was 100% and the remaining activity at 1 µM (PHKG1; [2]) was 100%. For the same molecule, the remaining activity at 1 µM (ROCK1; [2]) was 98%, the remaining activity at 1 µM (RET; [2]) was 0.15% and the remaining activity at 1 µM (PAK1; [2]) was 100%. The remaining activity at 1 µM (WEE2; [2]) was 21%, the remaining activity at 1 µM (RPS6KA4; read-out: HYJ-2-002-1 (1μM) % control, Kin.Dom.1-N-terminal) was 99% and the remaining activity at 1 µM (RPS6KA4; read-out: HYJ-2-002-1 (1μM) % control, Kin.Dom.2-C-terminal) was 100%. It also gave a remaining activity at 1 µM (SIK; [2]) of 1.8%.
